From US20030176368A1, “Synthesis of epothilones, intermediates thereto and analogues thereof” (priority 2001, published 2003)
Read-outs that look alike come from different tables or passages of the source.

How the values were obtained:
[1] = Stability on exposure to murine plasma; assay type: in vitro ADME; conditions: as compared to dEpoB (FIG. 21)
Text: (§1) See Chou et al. Proc. Natl. Acad. Sci. USA 98:8113, 2001, incorporated herein by reference, for details.
(§2) However, the apparently disappointing murine in vivo results should be viewed in the context of reports that dEpoB itself evidenced a degree of bioinstability in murine plasma; yet had much longer plasma half-lives in higher organisms, including humans (Chou et al. J. Proc. Natl. Acad. Sci. USA 98:8113, 2001; incorporated herein by reference). The observed discrepancy in efficacy between mice and other mammals, including humans, has been ascribed to higher esterase levels in rodents.

CCRF-CEM/VBL100 = assay: XTT cytotoxicity assay, vinblastine-resistant CCRF-CEM/VBL100 cells; assay type: cell-based, human; conditions: Homo sapiens, CCRF-CEM
Protocol: (§3) XTT assay following 72 h inhibition. CCRF-CEM is a human T-cell acute lymphoblastic leukemia cell line. The CCRF-CEM/VBL100, CCRF-CEM/VM1, and CCRF-CEM/Taxol cell lines all overexpress P-glycoprotein and display a multidrug resistance phenotype to MDR-associated oncolytics. (Chou et al. Proc. Natl. Acad. Sci. USA 98:8113, 2001; incorporated herein by reference).
(§4) A typical experiment invovles culturing cells (e.g., CCRF-CEM) at an initial density of 2-5×10^4 cells per ml. They are maintained in a 5% CO2-humidified atmosphere at 37° C. in RPMI medium 1640 (GIBCO/BRL) containing penicillin (100 units/ml), streptomycin (100 μg/ml) (GIBCO/BRL), and 5% heat-inactivated fetal bovine serum. For cells that were grown in suspension (such as CCRF-CEM and its sublines), cytotoxicitiy is measured by using the 2,-3-bis(2-methoxy-4-nitro-5-sulfophenyl)-5 carboxanilide)-2H terazodium hydroxide (XTT)-microculture tetrazonium method in duplicate in 96-well microtiter plates. For both methods, the absorbance of each well is measured with a microplate reader (EL-340, Bio-Tek, Burlington, Vt.). Each run entails six or seven concentrations of the tested drugs. Dose-effect relationship data are analyzed with the median-effect plot.
(§5) The CCRF-CEM human T cells, acute lymphoblastic leukemic cells, its teniposide-resistant subline (CCRF-CEM/VM1) and vinblastine-resistant subline (CCRF-CEM/VBL100) are obtained from W. T. Beck (University of Illinois, Chicago, Ill.).

CCRF-CEM/Taxol = assay: XTT cytotoxicity assay, taxol-resistant CCRF-CEM/Taxol cells; assay type: cell-based, human; conditions: for IC50: Homo sapiens, CCRF-CEM
Protocol: as §3, §4

[2] = Stability on exposure to human plasma; assay type: in vitro ADME
Text: as §1, §2

CCRF-CEM = assay: XTT cytotoxicity assay, CCRF-CEM cells; assay type: cell-based, human; conditions: for IC50: Homo sapiens, CCRF-CEM
Protocol: as §3, §4, §5

tubulin = assay: Tubulin binding: formation of microtubules in the presence of the compounds; assay type: biochemical
Text: Indeed, the microtubule stabilizing ability closely parallels the observed cytotoxicity data.

CCRF-CEM/VM1 = assay: XTT cytotoxicity assay, teniposide-resistant CCRF-CEM/VM1 cells; assay type: cell-based, human; conditions: Homo sapiens, CCRF-CEM
Protocol: as §3, §4, §5

[3] = test system: human mammary carcinoma MX-1; assay: Tumor xenograft in nude mice, 6 hr i.v. infusion; assay type: in vivo; conditions: as compared to control mice, MX-1 xenograft, listed as epothilone 490
Protocol: Athymic nude mice bearing the nu/nu gene are typically used for tumor xenografts. Outbred, Swiss-background mice were obtained from Charles River Laboratories. Male mice 8 weeks or older weighing 22 g and up were used for most experiments. The drug was administered via the tail vein for 6 hr.—i.v. infusion. Each individual mouse was confined in a perforated Falcon polypropylene tube restrainer for drug administration. Tumor volume was assessed by measuring length×width×height (or width) using a caliper. The programmable Harvard PHD2000 syringe pump (Harvard Apparatus) with multi-track was used for i.v. infusion. All animal studies were conducted in accordance with the guidelines of the National Institutes of Health “Guide for the Care and Use of Animals” and the protocol approved by the Memorial Sloan-Kettering Cancer Center's Institutional Animal Care and Use Committee. In keeping with the policy of this committee for the humane treatment of tumor-bearing animals, mice were euthanized when tumors reached ≧10% of their total body weight.
As depicted in FIGS. 14, 15, 16, and 17, Epo490 was tested in nude mice bearing human mammary carcinoma MX-1 following treatment with Epo490 or dEpoB (i.v. infusions for 6 hours). […] Tumor size and body weight were then measured using dosages of 30 mg/kg, 40 mg/kg or 50 mg/kg over 32 and 50 days.

With `CC1=C/C[C@@H](/C(C)=C/c2csc(C)n2)OC(=O)C[C@H](O)C(C)(C)C(=O)[C@H](C)[C@@H](O)[C@@H](C)C\C=C\1` [Epo490, 10,11-dehydro-12,13-desoxyepothilone B] the “degradation in murine plasma” value [1] was “faster degradation”, the IC50 (CCRF-CEM/VBL100; Example 5 Table 1, 72 h inhibition, read-out: In vitro Cytotoxicities (IC50) C/VBL100) was 91 nM and the IC50 (CCRF-CEM/VBL100; Example 9 table, read-out: Cell Growth Inhibition (IC50) CCRF-CEM/VBL) was 23 nM. The IC50 (CCRF-CEM/VBL100; Example 11 Table 2, XTT assay following 72-h inhibition, read-out: In Vitro Cytotoxicities (IC50) CCRF-CEM/VBL100) was 91 nM, the “activity in CCRF-CEM cell lines resistant to Taxol” value (CCRF-CEM/Taxol; Example 12, in words) was “demonstrated activity” and the IC50 (CCRF-CEM/Taxol; Example 5 Table 1, 72 h inhibition, read-out: In vitro Cytotoxicities (IC50) C/Taxol) was 32 nM. For the same molecule, the IC50 (CCRF-CEM/Taxol; Example 9 table, read-out: Cell Growth Inhibition (IC50) CCRF-CEM/taxol) was 13 nM, the IC50 (CCRF-CEM/Taxol; Example 11 Table 2, XTT assay following 72-h inhibition, read-out: In Vitro Cytotoxicities (IC50) CCRF-CEM/TAXOL) was 32 nM and the “stability in human versus nude mice plasma” value ([2]; FIG. 21 legend) was “increased stability”. The “degradation in human plasma” value ([2]; after more than 3 hours of exposure in human plasma) was “no measurable degradation”, the “activity in CCRF-CEM cell lines” value (CCRF-CEM; Example 12, in words) was “demonstrated activity” and the IC50 (CCRF-CEM; Example 5 Table 1, 72 h inhibition, read-out: In vitro Cytotoxicities (IC50) CCRF-CEM(C)) was 25 nM. For the same molecule, the IC50 (CCRF-CEM; Example 9 table, read-out: Cell Growth Inhibition (IC50) CCRF-CEM) was 9 nM, the IC50 (CCRF-CEM; Example 11 Table 2, XTT assay following 72-h inhibition, read-out: In Vitro Cytotoxicities (IC50) CCRF-CEM) was 25 nM and the “% Tubulin Binding” value (tubulin; Example 5 Table 1) was 89%. The “% Tubulin Binding” value (tubulin; Microtubules formed in the presence of dEpoB is defined as 100%) was 89%, the IC50 (CCRF-CEM/VM1; Example 5 Table 1, 72 h inhibition, read-out: In vitro Cytotoxicities (IC50) C/VM1) was 35 nM and the IC50 (CCRF-CEM/VM1; Example 11 Table 2, XTT assay following 72-h inhibition, read-out: In Vitro Cytotoxicities (IC50) CCRF-CEM/VMI) was 35 nM. For the same molecule, the “inhibitory effect on the growth of the implanted tumors” value [3] was “did not demonstrate a statistically significant inhibitory effect”.
